From EP1382341A1, “Use of compositions comprising glycyrrhetinic acid and benzoyl peroxide for acne treatment” (Cognis Iberia, S.L., priority 2002, dated 2004)
Values after ≈ are worked out from the molar mass of the structure shown. Like-named read-outs stand apart in the source and are kept apart here.

Legend:
Assay type in all cases: cell-based
Staphylococcus aureus [1] = experiment: Agar dilution method (MIC determination); conditions: lowest concentration with complete inhibition of growth, 37 °C, 18 to 24 h, mean of duplicate determinations
Text: (§1) Die antibakterielle Wirksamkeit der Wirkstoffe und Wirkstoffinischungen wurde mit Hilfe der Diffusionsmethode auf Agar-Platten bzw. der Agar-Verdünnungsmethode untersucht. Dabei wird zunächst ein rundes Filterpapier definierten Durchmessers mit der Testlösung getränkt und dieses dann auf die Oberfläche einer Agarplatte aufgebracht, welche zuvor mit den Testmikroorganismen inokuliert worden war. Anschließend wird nach definierten Zeiten die Größe der Inhibierungszonen bestimmt. Diese Technik erlaubt es insbesondere die MIC (Minimum Inhibitory Concentration) als die niedrigste Testsubstanzkonzentration zu bestimmen, mit der noch eine vollständige Inhibierung der Mikroorganismen erzielt werden kann.
(§2) Agar Verdünnungsmethode (MIC-Bestimmung). Wie oben beschrieben wurden verschiedene Agars vorbereitet, mit unterschiedlichen Konzentrationen an Testsubstanzen versetzt, homogenisiert und dann getrocknet. Anschließend erfolgte die Inokulation der Petrischalen mit jeweils 2 µl der Bakteriensuspensionen. […] Es handelt sich jeweils um den Mittelwert von Doppelbestimmungen.

[2] = system: Staphylococcus epidermidis; experiment: Agar dilution method (MIC determination); conditions: lowest concentration with complete inhibition of growth, 37 °C, 18 to 24 h, mean of duplicate determinations
Text: as §1, §2

Propionibacterium acnes [3] = experiment: Agar dilution method (MIC determination); conditions: lowest concentration with complete inhibition of growth, 37 °C, 18 to 24 h, mean of duplicate determinations
Text: as §1, §2

Staphylococcus aureus [4] = experiment: Agar diffusion method (inhibition zones); conditions: diameter of inhibition zone; Mueller-Hinton agar; filter paper with 20 µl test substance; 18 to 24 at 37 °C
Text: as §1
(§3) Agar-Diffusionsmethode. Das Inokulum wurde unter Verwendung einer frischen Kultur in einer stationären Wachstumsphase (nach ca. 18-24 h) in einer BHI-Lösung (Brain-Heart-InfüsionI) hergestellt. Die Bakteriensuspension wurde auf 0,5 MacFarland-Einheiten eingestellt, entsprechend 1,5 10^8 Kolonienbildende Einheiten (cfu)/ml; anschließend wurde die Suspension mit einer Kochsalzlösung 1/100 verdünnt, um einen Wert von 1,5 10^6 cfu/ml einzustellen. Anschließend wurde Mueller-Hinton Agar (Staphylococcus epidermis, Staphylococcus aureus) und Wilkins-Chalgrens Agar mit 5 Gew.-% Schafsblut (Propionobakterium acnes) 15 min bei 121 °C sterilisiert und dann in Petrischalen gegeben. Die Petrischalen wurden mit 2 bis 4 ml der Bakteriensuspensionen versetzt und bei Raumtemperatur getrocknet. Die Filterpapiere wurden mit 20 µl der Testsubstanzen getränkt und auf die Oberfläche der Agarplatten aufgebracht. Die inokulierten Petrischalen wurden 18 bis 24 bei 37 °C inkubiert (die Petrischalen mit Propionibacterium acnes unter anaeroben Bedingungen) und die antimikrobielle Wirksamkeit anschließend durch Bestimmung der Wachstumsinhibierungszone ermittelt. Die Ergebnisse sind in Tabelle 1 zusammengefasst. Angegeben sind ist jeweils der Durchmesser der Inhibierungsflächen in mm.

[5] = system: Staphylococcus epidermidis; experiment: Agar diffusion method (inhibition zones); conditions: diameter of inhibition zone; Mueller-Hinton agar; filter paper with 20 µl test substance; 18 to 24 at 37 °C
Text: as §1, §3

Propionibacterium acnes [6] = experiment: Agar diffusion method (inhibition zones); conditions: diameter of inhibition zone; Wilkins-Chalgren agar with 5 wt% sheep blood; 20 µl test substance; 18 to 24 at 37 °C, anaerobic
Text: as §1, §3

| Compound | MIC (Staphylococcus aureus [1]; Staphylococcus aureus, read-out: MIC) [µg/mL] | MIC ([2]; Staphylococcus epidermidis, read-out: MIC) [µg/mL] | MIC (Propionibacterium acnes [3]; Cutibacterium acnes, read-out: MIC) [µg/mL] | Inhibierungszonen (Staphylococcus aureus [4]) [mm] | Inhibierungszonen [5] [mm] | Inhibierungszonen (Propionibacterium acnes [6]) [mm] | MIC (Staphylococcus aureus [1]) [µg/mL] | MIC [2] | MIC (Propionibacterium acnes [3]) |
| --- | --- | --- | --- | --- | --- | --- | --- | --- | --- |
| O=C(OOC(=O)c1ccccc1)c1ccccc1 [A1, Benzoylperoxid] | > 10000 | 1250 (≈ 5.16 mM) | 1250 (≈ 5.16 mM) | 5 | 5 | 7 | – | – | – |
| Glyzyrrhetinsäure-Zinksalz [B1] | – | – | – | 5 | 5 | 4 | >10000 | 1,25 mg/ml | 1,25 mg/ml |
